# Where “and” joins values, the source holds several entries; their conditions need not be identical. Equal entries are not always repeated. Entries after “also recorded” stand apart in the source; their conditions may differ. Positions of bridges follow the written chain, without caps; N, C: chain ends. Non-standard residues stand in square brackets, D forms with d. Residues, ends and D or L forms follow the SMILES beside them.
# Legend:
# [1] = tested on: ovalbumin-induced pulmonary inflammation, IgE, IL-4 and recall responses; assay: Ovalbumin-induced asthma / hypersensitivity model; assay type: in vivo, mice; set-up: Total IgE (Serum), individual mice m1-m4 / Total IgE (Serum), Avg.: unit not given here; conditions: for ng/ml IgE (4X avg.): serum; for splenocyte recall response to OVA (in words): versus positive controls
# Experimental: A third study assessed the efficacy of daily dosing with CRD-Leu4Ile11Cys13 peptide 3(3-12)[MCP-1] to reduce OVA-induced pulmonary inflammation. Mice were sensitized with 0.1 mg of ovalbumin or PBS (diluent control) intraperitoneally in the absence of the test agent. […] These treatments were given daily from day 8 through day 21. On day 8, thirty minutes following treatment, mice were challenged intratracheally with 1% ovalbumin or PBS. On days 15, 18, and 21, thirty minutes following treatment, mice were challenged intratracheally with 2% ovalbumin or PBS. Mice were sacrificed 3 hours post-ovalbumin challenge, on day 21. Lungs were collected for histopathology, and for isolation of cells for total cell counts and FACS analysis. Bronchalveolar lavage (BAL) was collected for eicosinoid levels. Serum was collected for IgE and IL-4 levels. Spleens were collected for cytokine recall responses. […]
# [2] = Stability against acid hydrolysis; assay type: physicochemical; conditions: pH 2.0 for 2 hrs at 37°C
# Description: For example, to prepare a peptide 3 derivative, peptide 3(3-12)[MCP-1] was modified according to Jameson et al. (Nature, 368, 744 (1994)), which yielded CRD-Cys13Leu4Ile11peptide 3(3-12)[MCP-1] (Figure 3).
# [3] = Group 2: Ova on days 8, 15, 18, 21, treat 1 × day 21, sacrifice day 21, 0 µg/ml Ova
# [4] = Group 4: Ova on days 8, 15, 18, 21 & 35, treat BID 14 days, sacrifice day 35 (recent Ova challenge), 0 µg/ml Ova
# [5] = Group 5: Ova on days 8, 15, 18, 21, treat BID 14 days, sacrifice day 34 (No recent Ova challenge), 0 µg/ml Ova
# [6] = Group 5: PBS on days 8, 15, 18, 21, treat BID 14 days, sacrifice day 34 (No recent Ova challenge), 0 µg/ml Ova
structure (smiles),measurement,setting,value
CC[C@@H](C)[C@H]1NC(=O)[C@@H](CCC(N)=O)NC(=O)[C@H](N)CSSC[C@H](C(N)=O)NC(=O)[C@@H](CC(C)C)NC(=O)[C@@H](CC(=O)O)NC(=O)[C@H]2CCCN2C(=O)[C@@H](CCCCN)NC(=O)[C@@H](CCC(N)=O)NC(=O)[C@@H](CCCCN)NC(=O)[C@@H](Cc2c[nH]c3ccccc23)NC1=O (H-[dC][dQ][dI][dW][dK][dQ][dK][dP][dD][dL][dC]-NH2; disulfide 1-11),"Total IgE (Serum), Avg.",[1]; Group 2,1.505
same,"Total IgE (Serum), individual mice m1-m4",[1]; Group 2 (single treatment day 21),1.952 and 1.132 and 2.073 and 0.863
same,"IL-4 Assays, pg/ml IL-4, Avg. of Group",[1]; [3],2.89 pg/mL
same,"IL-4 Assays, pg/ml IL-4, individual mice m1-m4",[1]; [3],2.81 pg/mL and 5.60 pg/mL and 0.25 pg/mL and 0.45 pg/mL
same,"Total IgM + IgG (1 week splenocyte cultures), Avg.",[1]; [3],57.45
same,"Total IgM + IgG (1 week splenocyte cultures), individual mice m1-m4",[1]; [3],108.00 and 24.97 and 40.65 and 56.17
same,Total IgE (1 week splenocyte cultures),"[1]; Group 2, 0 µg/ml Ova",0.067 ng/mL
same,"Total IgE (1 week splenocyte cultures), Avg.","[1]; Group 2, 0 µg/ml Ova",0.017
same,"Total IgE (1 week splenocyte cultures), individual mice m1-m4","[1]; Group 2, 0 µg/ml Ova",0.000 and 0.051 and 0.007 and 0.009
same,"IL-4 Assays, pg/ml IL-4, Avg. of Group","[1]; Group 2, 5 µg/ml Ova",5.86 pg/mL
same,"IL-4 Assays, pg/ml IL-4, individual mice m1-m4","[1]; Group 2, 5 µg/ml Ova",3.18 pg/mL and 8.55 pg/mL
same,Total IgE (1 week splenocyte cultures),"[1]; Group 2, 5 µg/ml Ova",0.128 ng/mL
same,"Total IgE (1 week splenocyte cultures), Avg.","[1]; Group 2, 5 µg/ml Ova",0.032
same,"Total IgE (1 week splenocyte cultures), individual mice m1-m4","[1]; Group 2, 5 µg/ml Ova",0.041 and 0.023
same,"Total IgM + IgG (1 week splenocyte cultures), Avg.","[1]; Group 2, 5 µg/ml Ova",150.46
same,"Total IgM + IgG (1 week splenocyte cultures), individual mice m1-m4","[1]; Group 2, 5 µg/ml Ova",254.36 and 46.56
same,"IL-4 Assays, pg/ml IL-4, Avg. of Group","[1]; Group 2, 50 µg/ml Ova",12.57 pg/mL
same,"IL-4 Assays, pg/ml IL-4, individual mice m1-m4","[1]; Group 2, 50 µg/ml Ova",7.10 pg/mL and 11.46 pg/mL and 19.15 pg/mL and 75.36 pg/mL
same,Total IgE (1 week splenocyte cultures),"[1]; Group 2, 50 µg/ml Ova",0.024 ng/mL
same,"Total IgE (1 week splenocyte cultures), Avg.","[1]; Group 2, 50 µg/ml Ova",0.006
same,"Total IgE (1 week splenocyte cultures), individual mice m1-m4","[1]; Group 2, 50 µg/ml Ova",0.011 and 0.002 and 0.004 and 0.007
same,"Total IgM + IgG (1 week splenocyte cultures), Avg.","[1]; Group 2, 50 µg/ml Ova",241.75
same,"Total IgM + IgG (1 week splenocyte cultures), individual mice m1-m4","[1]; Group 2, 50 µg/ml Ova",137.57 and 176.41 and 331.79 and 321.23
same,ng/ml IgE (4X avg.),[1]; Group 2,6.020 ng/mL
same,"Total IgE (Serum), Avg.",[1]; Group 4,0.621
same,"Total IgE (1 week splenocyte cultures), individual mice m1-m4","[1]; Group 4 (recent Ova challenge), 0 µg/ml Ova, listed as CRD-Leu4Ile11Cys13peptide 3(3-12)[MCP-1]",0.008 and 0.001 and 0.015 and 0.002
same,"Total IgE (Serum), individual mice m1-m4","[1]; Group 4 (treated 14 days, recent Ova challenge)",0.310 and 0.298 and 0.984 and 0.890
same,"IL-4 Assays, pg/ml IL-4, Avg. of Group",[1]; [4],2.92 pg/mL
same,"Total IgM + IgG (1 week splenocyte cultures), Avg.",[1]; [4],17.16
same,Total IgE (1 week splenocyte cultures),"[1]; Group 4, 0 µg/ml Ova",0.026 ng/mL
same,"Total IgE (1 week splenocyte cultures), Avg.","[1]; Group 4, 0 µg/ml Ova",0.007
same,"IL-4 Assays, pg/ml IL-4, Avg. of Group","[1]; Group 4, 5 µg/ml Ova",8.05 pg/mL
same,"IL-4 Assays, pg/ml IL-4, individual mice m1-m4","[1]; Group 4, 5 µg/ml Ova",10.40 pg/mL and 12.77 pg/mL and 4.59 pg/mL and 4.45 pg/mL
same,Total IgE (1 week splenocyte cultures),"[1]; Group 4, 5 µg/ml Ova",0.096 ng/mL
same,"Total IgE (1 week splenocyte cultures), Avg.","[1]; Group 4, 5 µg/ml Ova",0.024
same,"Total IgM + IgG (1 week splenocyte cultures), Avg.","[1]; Group 4, 5 µg/ml Ova",163.95
same,"Total IgE (1 week splenocyte cultures), individual mice m1-m4","[1]; Group 4, 5 µg/ml Ova, listed as CRD-Leu4Ile11Cys13peptide 3(3-12)[MCP-1]",0.009 (2×) and 0.047 and 0.031
same,"Total IgM + IgG (1 week splenocyte cultures), individual mice m1-m4","[1]; Group 4, 5 µg/ml Ova, listed as CRD-Leu4Ile11Cys13 peptide 3(3-12)[MCP]",189.07 and 249.75 and 148.16 and 68.83
same,"IL-4 Assays, pg/ml IL-4, Avg. of Group","[1]; Group 4, 50 µg/ml Ova",14.45 pg/mL
same,"IL-4 Assays, pg/ml IL-4, individual mice m1-m4","[1]; Group 4, 50 µg/ml Ova",14.38 pg/mL and 22.08 pg/mL and 10.25 pg/mL and 11.09 pg/mL
same,Total IgE (1 week splenocyte cultures),"[1]; Group 4, 50 µg/ml Ova",0.082 ng/mL
same,"Total IgE (1 week splenocyte cultures), Avg.","[1]; Group 4, 50 µg/ml Ova",0.021
same,"Total IgM + IgG (1 week splenocyte cultures), Avg.","[1]; Group 4, 50 µg/ml Ova",416.86
same,"Total IgE (1 week splenocyte cultures), individual mice m1-m4","[1]; Group 4, 50 µg/ml Ova, listed as CRD-Leu4Ile11Cys13peptide 3(3-12)[MCP-1]",0.013 and 0.043 and 0.008 and 0.018
same,"Total IgM + IgG (1 week splenocyte cultures), individual mice m1-m4","[1]; Group 4, 50 µg/ml Ova, listed as CRD-Leu4Ile11Cys13 peptide 3(3-12)[MCP]",338.50 and 679.86 and 487.87 and 161.20
same,ng/ml IgE (4X avg.),[1]; Group 4,2.482 ng/mL
same,"Total IgE (Serum), Avg.",[1]; Group 5,1.102
same,"Total IgE (1 week splenocyte cultures), individual mice m1-m4","[1]; Group 5 (No recent Ova challenge), 0 µg/ml Ova",0.008 and 0.033 and 0.000 and 0.024
same,"Total IgE (Serum), individual mice m1-m4","[1]; Group 5 (treated 14 days, no recent Ova challenge)",0.625 and 1.870 and 0.838 and 1.073
same,"IL-4 Assays, pg/ml IL-4, Avg. of Group",[1]; [5],8.05 pg/mL
same,"IL-4 Assays, pg/ml IL-4, individual mice m1-m4",[1]; [5],9.09 pg/mL and 3.80 pg/mL and 12.89 pg/mL and 6.42 pg/mL
same,"Total IgM + IgG (1 week splenocyte cultures), Avg.",[1]; [6],20.05
same,"Total IgM + IgG (1 week splenocyte cultures), individual mice m1-m4",[1]; [6],26.54 and 15.44 and 21.35 and 16.89
same,Total IgE (1 week splenocyte cultures),"[1]; Group 5, 0 µg/ml Ova",0.065 ng/mL
same,"Total IgE (1 week splenocyte cultures), Avg.","[1]; Group 5, 0 µg/ml Ova",0.016
same,"IL-4 Assays, pg/ml IL-4, Avg. of Group","[1]; Group 5, 5 µg/ml Ova",6.33 pg/mL
same,"IL-4 Assays, pg/ml IL-4, individual mice m1-m4","[1]; Group 5, 5 µg/ml Ova",5.70 pg/mL and 4.43 pg/mL and 10.09 pg/mL and 5.10 pg/mL
same,Total IgE (1 week splenocyte cultures),"[1]; Group 5, 5 µg/ml Ova",0.082 ng/mL
same,"Total IgE (1 week splenocyte cultures), Avg.","[1]; Group 5, 5 µg/ml Ova",0.021
same,"Total IgE (1 week splenocyte cultures), individual mice m1-m4","[1]; Group 5, 5 µg/ml Ova",0.003 and 0.065 and 0.000 and 0.014
same,"Total IgM + IgG (1 week splenocyte cultures), Avg.","[1]; Group 5, 5 µg/ml Ova",53.22
same,"Total IgM + IgG (1 week splenocyte cultures), individual mice m1-m4","[1]; Group 5, 5 µg/ml Ova",64.20 and 31.21 and 67.94 and 49.53
same,"IL-4 Assays, pg/ml IL-4, Avg. of Group","[1]; Group 5, 50 µg/ml Ova",5.61 pg/mL
same,"IL-4 Assays, pg/ml IL-4, individual mice m1-m4","[1]; Group 5, 50 µg/ml Ova",7.02 pg/mL and 6.10 pg/mL and 4.74 pg/mL and 4.59 pg/mL
same,Total IgE (1 week splenocyte cultures),"[1]; Group 5, 50 µg/ml Ova",0.021 ng/mL
same,"Total IgE (1 week splenocyte cultures), Avg.","[1]; Group 5, 50 µg/ml Ova",0.005
same,"Total IgE (1 week splenocyte cultures), individual mice m1-m4","[1]; Group 5, 50 µg/ml Ova",0.000 (2×) and 0.020 and 0.001
same,"Total IgM + IgG (1 week splenocyte cultures), Avg.","[1]; Group 5, 50 µg/ml Ova",111.41
same,"Total IgM + IgG (1 week splenocyte cultures), individual mice m1-m4","[1]; Group 5, 50 µg/ml Ova",86.16 and 80.04 and 189.70 and 89.74
same,ng/ml IgE (4X avg.),[1]; Group 5,4.406 ng/mL
same,"inflammatory infiltrates in the lung, histology (in words)","[1]; first study, high dose",minimal to no inflammatory infiltrates
same,reduction in IL-4,"[1]; second study, dose-dependent",85%
same,reduction in macrophages,"[1]; second study, dose-dependent",74%
same,reduction in total cells in the lung,"[1]; second study, dose-dependent",approximately 50%
same,reduction in IgE,"[1]; second study, s.c. 10.3 µg-1.03 mg before OVA challenges, dose-dependent",60%
same,"cells in the lungs, total counts / FACS (in words)","[1]; versus PBS + OVA positive controls, study and dose as in the block","significantly lower numbers of CD3, CD4, B220, and Mac-1 cells; also recorded: significantly lower percentages of macrophages; also recorded: significantly lower numbers of macrophages, B cells, and CD4+ T cells; also recorded: no significant reduction of total cells in the lungs"
same,IgE levels (in words),"[1]; versus PBS + OVA positive controls, study as in the block",not detectable above background; also recorded: significantly lower; also recorded: significantly reduced; also recorded: reduced levels of serum IgE
same,splenocyte recall response to OVA (in words),[1]; study as in the block,"reduced levels of IL-4, IgE, and total IgG and IgM"
same,splenocyte recall response to OVA (in words),"[1]; study as in the block, listed as CRD-Leu4Ile11Cys13peptide 3(3-12)[MCP-1]",significantly less IL-4
same,degradation by acid hydrolysis,[2],< 10%
